Source: patent publication US11918550B2, “Sensitization of cancer cells to differentiation therapy with mitochondrial uncoupler niclosamide ethanolamine” (The Board of Trustees of the Leland Stanford Junior …, priority 2020, dated 2024)

Tests used:
Type in all cases: cell-based
NB16 cells = test: Relative intracellular metabolite levels by LC/MS
Procedure: (§1) Metabolic analysis. For the metabolomics and isotope tracing analysis in vitro, cells were washed with cold PBS, lysed in 80% Ultra LC-MS acetonitrile on ice for 15 minutes, centrifuged at 20,000 g for 10 minutes at 4° C., and supernatant was subjected to mass spectrometry analysis. For the metabolomics analysis in vivo, 10-20 mg tissue were cut off on ice, rinsed if necessary to remove blood, and place in a 2 ml round-bottom cryovial. The tissues were homogenized by 3 times 10 s on/off bursts homogenization in 1 ml 80% methanol on dry ice. Transfer the homogenate to an Eppendorf tube and keep on liquid nitrogen while processing the remaining samples. Incubated all the samples in −80° C. for 30 minutes. After incubation, vortexed the samples for 5 seconds. Then centrifuged the samples at 20,000 g for 10 minutes at 4° C., and supernatant was subjected to mass spectrometry analysis. Resuspend the remaining cellular pellet in 100 ul protein lysis buffer and determine the protein concentration. Then calculate the total protein content per sample.
(§2) Liquid chromatography was performed using an Agilent 1290 Infinity LC system (Agilent, Santa Clara, US) coupled to a Q-TOF 6545 mass spectrometer (Agilent, Santa Clara, US). A hydrophilic interaction chromatography method (HILIC) with a BEH amide column (100×2.1 mm i.d., 1.7 μm; Waters) was used for compound separation at 35° C. with a flow rate of 0.3 ml/minutes. The mobile phase A consisted of 25 mM ammonium acetate and 25 mM ammonium hydroxide in water and mobile phase B was acetonitrile. The gradient elution was 0-1 minute, 85% B; 1-12 minutes, 85% B→65% B; 12-12.2 minutes, 65% B→40% B; 12.2-15 minutes, 40% B. After the gradient, the column was re-equilibrated at 85% B for 5 minutes. The overall runtime was 20 minutes, and the injection volume was 5 μL. Agilent Q-TOF was operated in negative mode and the relevant parameters were as listed: ion spray voltage, 3500 V; nozzle voltage, 1000 V; fragmentor voltage, 125 V; drying gas flow, 11 L/minutes; capillary temperature, 325° C., drying gas temperature, 350° C.; and nebulizer pressure, 40 psi. A full scan range was set at 50 to 1600 (m/z). The reference mass was 119.0363 and 980.0164. The acquisition rate was 2 spectra/s. Targeted analysis, isotopologues extraction and natural isotope abundance correction were performed by Agilent Profinder B.10.00 (Agilent Technologies).

SK-N-BE(2) cells [1] = test: Relative intracellular metabolite levels by LC/MS
Procedure: as §1, §2

SK-N-BE(2) cells [2] = test: RNA-seq gene expression profiling with GSEA/DAVID analysis and qPCR validation
Procedure: RNA isolation, reverse transcription, and real-time PCR. The procedure was performed as described before. Briefly, total RNA was isolated from 60 mm tissue culture plates according to the TRIzol Reagent (Invitrogen, 15596026) protocol. 3 μg of total RNA was used in the reverse transcription reaction using the iScript cDNA synthesis kit (Bio-Rad). Quantitative PCR amplification was performed on the Prism 7900 Sequence Detection System (Applied Biosystems) using Taqman Gene Expression Assays (Applied Biosystems). Gene expression level were normalized to 18S rRNA.
RNA Sequencing and bioinformatics analysis. […] The RNA-seq library was constructed and subjected to 150 bp paired-end sequencing on an Illumina sequencing platform (Novogene). RNA-seq analysis was performed using the kallisto and sleuth analytical pipeline. In brief, a transcript index was generated with reference to Ensembl version 67 for hg19. Paired-end mRNA-seq reads were pseudo-aligned using kallisto (v0.42.4) with respect to this transcript index using 100 bootstraps (-b 100) to estimate the variance of estimated transcript abundances. Transcript-level estimates were aggregated to transcripts per million (TPM) estimates for each gene, with gene names assigned from Ensembl using biomaRt. Differential gene expression analysis was performed using the sleuth R package across pairwise groups using Wald tests, with significant hits called with a sleuth q-value<0.05 and log 2(fold change) >0.693 or <−0.693. […] All the annotated transcripts (˜21,427 features in total) with expression values were uploaded to a locally-installed GSEA tool (version 4.1.0) and compared against the H: hallmark gene sets (50 gene sets).
To generate the favorable or unfavorable prognosis gene sets, Kaplan-Meier assay were employed for all the genes independently by using all 11 available neuroblastoma patient databases from R2.
For functional annotation, differentially expressed genes were submitted to online Database for Annotation, Visualization and Integrated Discovery (DAVID) website. The Analyses in DAVID were performed using the default parameters.

SK-N-BE(2) cells [3] = test: Neurite outgrowth and β-tubulin III immunofluorescence (neuron differentiation); conditions: 72-96 h
Procedure: Neurite outgrowth assay. The quantification of neurite was performed as described before. Shortly, 1×10^4 SK-N-BE(2) and NB16 cells were plated in a 12 well-plate per well. After overnight incubation, cells were treated with various conditions as indicated for 72 h. Then, images were taken by a Leica Florescent Microscope DMi8 in phase contrast mode (20× magnification). The lengths of the neurites were traced and quantified using the ImageJ plugin NeuronJ. For each sample, total neurite length was measured and normalized to the number of cell bodies, mean value from 3 biological replicates was reported. Immunofluorescence staining. SK-N-BE(2) and NB16 cells were seeded into 8-chamber slides (Thermo Fisher Scientific, 154534) with a density of 6×10^3 cells/well overnight and treated with indicated treatment for 72 h. Cells were fixed with 4% PFA in PBS with 0.1% Tween-20 at RT for 30 minutes followed by permeabilization with 0.1% Triton X-100 in PBS at room temperature for 10 min. The cells were washed with PBS twice and blocked with 2.5% horse serum in PBS at RT for 1 h. Then, cells were subjected to immunofluorescence staining with primary antibody at 4° C. overnight. After two washes with PBS, cells were incubated with Alexa Fluor 594-conjugated anti-rabbit secondary antibody (Life Technologies) at RT for 1 h followed by staining with DAPI (Vector Laboratories, H-1800-2). Images were acquired with Leica DMi8 microscope.

[4] = SK-N-BE(2) cells, 1 μM NEN 2 h or 5 h vs DMSO
[5] = SK-N-BE(2) cells, 1 μM NEN 5 h vs DMSO
[6] = SK-N-BE(2), 1 μM NEN under hypoxia 3 h or 6 h
[7] = GSEA against gene sets from 11 neuroblastoma datasets of the R2 database
[8] = SK-N-BE(2), NEN 16 h, DAVID analysis
[9] = SK-N-BE(2), NEN 16 h, sleuth q-value<0.05, b>abs(ln(2))
[10] = SK-N-BE(2), RNA-seq, validated by RT-qPCR

Structure (SMILES): O=C(Nc1ccc([N+](=O)[O-])cc1Cl)c1cc(Cl)ccc1O [NEN, 5-chloro-N-(2-chloro-4-nitrophenyl)-2-hydroxybenzamide compound with 2-aminoethanol (1:1)]
- aspartate level (NB16 cells; 1 μM NEN 2 h or 5 h vs DMSO): accumulated
- citrate level (NB16 cells; 1 μM NEN 2 h or 5 h vs DMSO): not affected
- fumarate level (NB16 cells; 1 μM NEN 2 h or 5 h vs DMSO): no significant increase
- intracellular α-KG levels (NB16 cells; 1 μM NEN 2 h or 5 h vs DMSO): increased significantly
- malate level (NB16 cells; 1 μM NEN 2 h or 5 h vs DMSO): no significant increase
- succinate level (NB16 cells; 1 μM NEN 2 h or 5 h vs DMSO): accumulated
- intracellular glutamate level (NB16 cells; 1 μM NEN 5 h vs DMSO): significantly reduced
- intracellular glutamine level (NB16 cells; 1 μM NEN 5 h vs DMSO): significantly reduced
- aspartate level (SK-N-BE(2) cells [1]; [4]): accumulated
- citrate level (SK-N-BE(2) cells [1]; [4]): not affected
- fumarate level (SK-N-BE(2) cells [1]; [4]): no significant increase
- intracellular α-KG levels (SK-N-BE(2) cells [1]; [4]): increased significantly
- malate level (SK-N-BE(2) cells [1]; [4]): no significant increase
- succinate level (SK-N-BE(2) cells [1]; [4]): accumulated
- intracellular glutamate level (SK-N-BE(2) cells [1]; [5]): significantly reduced
- intracellular glutamine level (SK-N-BE(2) cells [1]; [5]): significantly reduced
- 2-HG levels under hypoxia (SK-N-BE(2) cells [1]; [6]): significantly reduced
- α-KG level under hypoxia (SK-N-BE(2) cells [1]; [6]): partially restored
- enrichment of NEN-downregulated genes in patient prognosis gene sets (SK-N-BE(2) cells [2]; [7]): enriched in unfavorable prognosis gene sets
- enrichment of NEN-upregulated genes in patient prognosis gene sets (SK-N-BE(2) cells [2]; [7]): enriched in all the favorable prognosis gene sets except one
- genes expression in RAR signaling induced by RA (SK-N-BE(2) cells [2]; SK-N-BE(2), 1 μM NEN + 1 μM 13-cis-RA 16 hrs, validated by qRT-PCR): significantly enhanced
- p53 pathway gene expression (GSEA) (SK-N-BE(2) cells [2]; SK-N-BE(2), NEN 16 h): significantly increased
- pathways enriched in NEN-downregulated genes (SK-N-BE(2) cells [2]; [8]): DNA replication and cell cycle progression
- pathways enriched in upregulated genes (SK-N-BE(2) cells [2]; [8]): neurogenesis, nervous system development and neuron differentiation
- number of genes downregulated (SK-N-BE(2) cells [2]; [9]): 224
- number of genes significantly upregulated (SK-N-BE(2) cells [2]; [9]): 495
- cell division-related genes (GSEA hallmarks E2F-TARGETS, G2M_CHECKPOINT) (SK-N-BE(2) cells [2]; SK-N-BE(2), NEN 16 h vs CTRL): downregulation
- expression of N-Myc targeted genes (GSEA MYC_TARGETS_V1, V2) (SK-N-BE(2) cells [2]; SK-N-BE(2), NEN 16 h vs CTRL): reduced
- expression of canonical Wnt/β-catenin target genes (SK-N-BE(2) cells [2]; [10]): reduced
- gene expression of inhibitor of Wnt/β-catenin pathway including TP53 (SK-N-BE(2) cells [2]; [10]): upregulated
- neuron differentiation morphology, NEN combined with RA vs NEN alone (SK-N-BE(2) cells [3]; 1 μM NEN + 1 μM 13-cis-RA): more profound
- neuron differentiation morphology (neurite length, β-tubulin III staining) (SK-N-BE(2) cells [3]; 1 μM NEN alone): induced
